Experiments:
[1] = low, dose dependent; cited from earlier work
[2] = system: phospho-ERK; assay: Western blot of ERK phosphorylation in HPAF-11 pancreatic tumor cells; format: cell-based, human; settings: HPAF-11 cells, 48 hours, DMEM 10% FBS, western blot (FIG. 3)
Protocol: Cells were treated for 48 hours with indicated concentrations of COMPOUND A in DMEM containing 10% FBS. Phosphorylation of ERK was assessed by western blot using antibodies that detect total and phospho-ERK. Actin detection was used as a loading control for total lysate protein.

[3] = system: HPAF-II (pancreatic) tumor cells; assay: MTT cell viability assay with HPAF-II pancreatic tumor cells; format: cell-based, human
Protocol: MTT Cell Viability Assay with HPAF-II (Pancreatic) Tumor Cells—
10 mM of COMPOUND A stock solution was made by dissolving the 8.2 mg of powder form of COMPOUND A in 1.468 mL of DMSO to form the stock solution. The stock solution was aliquoted to 0.6 mL microcentrifuge tubes with 20 μl of solution in each microcentrifuge tube.
Pancreatic cancer cell line HPAF-II was seeded in a 96-well plate with 5000 cells/well and incubated overnight at 37° C. The next day, cells were treated triplicate by removing cell media and replaced with fresh media containing COMPOUND A alone at increasing concentrations (10 μM, 20 μM, 20 μM, 50 μM, 75 μM, 100 μM 125 μM 150 μM, 175 μM 200 μM) as well as the combination of the 10 μM of COMPOUND A and Gemcitabine at increasing concentrations (0 μM, 0.01 μM, 0.05 μM, 0.1 μM, 0.5 μM, 1 μM, 5 μM, 10 μM). Drug vehicle (DMSO, Sigma) was used as a control for the treatment. Cells were then left to grow in the presence of the drugs for the following 72 hours.
After 72 hours, the media was discarded and the cells were incubated with MTT (3-(4,5-Dimethylthiazol-2-yl)-2,5-diphenyltetrazolim bromide) solution (5 mg/ml stock) at working concentration of 0.5 mg/ml in fresh cell growth media for 2 hours at 37° C. The reaction was stopped when the majority of the cells was stained. MTT solution was then aspirated and the plate was left to dry for several hour. Stained cells were then resuspended in 70 μl of DMSO and mixed well. The absorbance was read with the use of a plate reading spectrophotometer at the 570 nm. The CompuSyn data for the drug combination of COMPOUND A and Gemcitabine in each cell line was generated and analysed using the CompuSyn software which was set up by […] and published by ComboSyn, Inc.

[4] = system: HCT116 (colorectal) tumor cells; assay: CELLTITER-GLO cell viability assay, HCT116; format: cell-based, human; settings: COMPOUND A alone, 72 hours, 5% FBS (FIG. 6)
Protocol: (§1) CELLTITER-GLO® Cell Viability Assay (a homogeneous method of determining the number of viable cells in culture based on quantitation of the ATP present, an indicator of metabolically active cells)
(§2) MKN1 (gastric), PC3 (prostate), NCIH727 (lung), and HCT116 (colorectal) tumor cell lines; Control=0.1% DMSO
(§3) To prepare 10 mM FL41 stock from powder dissolve 4.1 mg of FL41 powder into 0.74 ml DMSO-aliquot and store at −20 C until use DMSO-stock from Sigma or other suitable vendor-must be reagent or ACS grade or better.
(§4) Place 5000 cells per well (200 ul) in duplicate in their preferred media as shown in 96-well plate diagram immediately below. Reduce the final FBS (serum) concentration to 5% before adding cells to media. Incubate cells overnight and then remove old media carefully and add fresh media with 5% FBS and then either add DMSO alone, COMPOUND A alone or in combination with GEM (gemcitabine) in wells where noted at the final concentrations noted. Incubate the cells at 37 C in CO2 incubator for an additional 72 hours in presence of compounds. At the end of the 72-hour period add Promega Titerglo reagent to the wells and then measure luminescence to assess relative cell number.

[5] = system: NCIH727 (lung) tumor cells; assay: CELLTITER-GLO cell viability assay, H727; format: cell-based, human
Protocol: as §1, §2, §3, §4

[6] = system: PC3 (prostate) tumor cells; assay: CELLTITER-GLO cell viability assay, PC3; format: cell-based, human; settings: COMPOUND A alone, 72 hours, 5% FBS
Protocol: as §1, §2, §3, §4

[7] = system: MKN1 (gastric) tumor cells; assay: CELLTITER-GLO cell viability assay, MKN1; format: cell-based, human
Protocol: as §1, §2, §3, §4

SMILES	oral and oromucosal bioavailability [1]	phospho-ERK levels in tumor cells as compared to control [2]	growth of HPAFII (pancreatic) tumor cell line as compared to control ([3]; COMPOUND A alone)	increase in rate of the cell kill vs Compound A or gemcitabine alone ([3]; HPAF-II, 10 μM COMPOUND A combined with gemcitabine, 72 hours (FIG. 2))	kill of the pancreatic tumor cells ([3]; HPAF-II, 50 μM, 72 hours, MTT (FIG. 1)) [%]	kill of the tumor cells ([3]; HPAF-II, about 175 μM, 72 hours, MTT (FIG. 1))	growth of HCT116 (colorectal) tumor cell line as compared to control [4]	growth of H727 (lung) tumor cell line as compared to control ([5]; COMPOUND A alone, 72 hours, 5% FBS (FIG. 7))	effect on gemcitabine growth inhibition of human h727 lung tumor cells ([5]; combination with gemcitabine, 72 hours (FIG. 8))	growth of PC3 (prostate) tumor cell line as compared to control [6]	growth of MKN1 (gastric) tumor cell line as compared to control ([7]; COMPOUND A alone, 72 hours, 5% FBS (FIG. 4))	effect on gemcitabine growth inhibition of human mkn1 gastric tumor cells ([7]; combination with gemcitabine, 72 hours (FIG. 5))
C=C(C)[C@@H]1CCC(C)=C[C@H]1c1c(O)cc(CCCCC)cc1O [CBD, Cannabidiol]	about 35%											
C=C(C)[C@@H]1CCC(C)=C[C@H]1c1c(O)cc(CCCCC)cc1OC(=O)N[C@@H](C)C(=O)N[C@@H](CCC(=O)O)C(=O)O [COMPOUND A]		effectively decrease phospho-ERK levels	inhibit the growth	at least 10%	≥ 50	more than 80%	inhibit the growth	inhibit the growth	potentiates	inhibit the growth	inhibit the growth	synergistic impact

Reference: patent publication US11980602B2, “Cannabinoid prodrug compounds” (Firstlight Pharmaceuticals LLC, priority 2019, dated 2024)
